Drawing on ChEMBL document CHEMBL1130281, “Structure-based design of a new bisintercalating anthracycline antibiotic” (1997), this text covers IC50 and RI for two molecules.

The structures appear in SMILES notation.

One assay relates to MCF7. Briefly: In vitro cytotoxicity against human breast carcinoma cell line (MCF-7). Type of assay: functional. Conditions: read-out: ID50 (the source's name).
A further assay deals with MCF7-VP. In words: In vitro cytotoxicity against multi drug resistant human breast carcinoma (MCF-7/VP-16) cell line. Conditions: read-out: ID50 (the source's name). It is filed as functional.
A short description of assay [1]: RI is the ratio of cytotoxicity against MCF-7/VP-16 cell line to that of MCF-7 cell line. Type of assay: functional, MCF7.

As to `COc1cccc2c1C(=O)c1c(O)c3c(c(O)c1C2=O)C[C@@](O)(C(C)=O)C[C@@H]3OC1CC(NCc2ccc(CNC3CC(O[C@H]4C[C@](O)(C(C)=O)Cc5c(O)c6c(c(O)c54)C(=O)c4c(OC)cccc4C6=O)OC(C)C3O)cc2)C(O)C(C)O1.Cl.Cl` (some centres undefined) [BISANTHRACYCLINE (WP631)], the figures for the IC50 in the assay on MCF7 and in the assay on MCF7-VP were 4.8 µM and 2.5 µM, respectively. The RI in assay [1] was found to be 0.5.
`COc1cccc2c1C(=O)c1c(O)c3c(c(O)c1C2=O)C[C@@](O)(C(=O)CO)C[C@@H]3O[C@H]1C[C@H](N)[C@H](O)[C@H](C)O1` [DOXORUBICIN]: the IC50 in the assay with MCF7-VP came to 14.2 µM.
